Structures can show the parent of a compound that is named as a salt. Where two headings read alike, the source gives them in different places.
Legend:
Test in all cases: In vitro antibacterial activity (MIC)
Assay type in all cases: cell-based
E. aerogenes 503-478 = settings: Klebsiella aerogenes, 503478, E. aerogenes 503-478; read-out: MIC
Procedure, shortened: (§1)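 Twofold-style dilution series (128 to 0.008 μg/ml) made in Mueller-Hinton broth, dispensed, then inoculated with 1.5 μl of a 10^-2 overnight-culture dilution. Plates sealed, held overnight at 37° C, inspected with a viewer.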

S. marcescens S714 = settings: Serratia marcescens, S714, S. marcescens S714; read-out: MIC
Procedure, shortened: as §1

E. cloacae 6951 = settings: Enterobacter cloacae, 6951, E. cloacae 6951; read-out: MIC
Procedure, shortened: as §1

E. cloacae 214 = settings: Enterobacter cloacae, 214, E. cloacae 214; read-out: MIC
Procedure, shortened: as §1

E. cloacae 9295 = settings: Enterobacter cloacae, 9295, E. cloacae 9295; read-out: MIC
Procedure, shortened: as §1

C. diversus CDC 1663-72 = settings: Citrobacter koseri, CDC166372; C. diversus CDC 1663-72; read-out: MIC
Procedure, shortened: as §1

K. pneumoniae 8357 = settings: Klebsiella pneumoniae, 8357, K. pneumoniae 8357; read-out: MIC
Procedure, shortened: as §1

K. pneumoniae HE7 = settings: Klebsiella pneumoniae; K. pneumoniae HE7; read-out: MIC
Procedure, shortened: as §1

P. vulgaris 100 = settings: Proteus vulgaris; P. vulgaris 100; read-out: MIC
Procedure, shortened: as §1

S. marcescens S2 = settings: Serratia marcescens; S. marcescens S2; read-out: MIC
Procedure, shortened: as §1

E. coli 387-1 = settings: Escherichia coli, 3871, E. coli 387-1; read-out: MIC
Procedure, shortened: as §1

K. pneumoniae 35 = settings: Klebsiella pneumoniae; K. pneumoniae 35; read-out: MIC
Procedure, shortened: as §1

S. faecalis C1 = settings: Enterococcus faecalis; S. faecalis C1; read-out: MIC
Procedure, shortened: as §1

E. coli 5152 = tested on: E. coli 5152
Procedure, shortened: as §1

S. marcescens S1 = settings: Serratia marcescens, S1, S. marcescens S1; read-out: MIC
Procedure, shortened: as §1

P. aeruginosa 8780 = settings: Pseudomonas aeruginosa; P. aeruginosa 8780; read-out: MIC
Procedure, shortened: as §1

P. aeruginosa 5712 = settings: Pseudomonas aeruginosa; P. aeruginosa 5712; read-out: MIC
Procedure, shortened: as §1

S. marcescens 5805 = settings: Serratia marcescens, 5805, S. marcescens 5805; read-out: MIC
Procedure, shortened: as §1

P. aeruginosa 503-820 = settings: Pseudomonas aeruginosa, 503820; P. aeruginosa 503-820; read-out: MIC
Procedure, shortened: as §1

E. coli 503-455 = tested on: E. coli 503-455
Procedure, shortened: as §1

S. marcescens S4 = settings: Serratia marcescens, S4, S. marcescens S4; read-out: MIC
Procedure, shortened: as §1

P. aeruginosa B = settings: Pseudomonas aeruginosa, read-out: MIC
Procedure, shortened: as §1

P. aeruginosa POW 151 = settings: Pseudomonas aeruginosa, POW151
Procedure, shortened: as §1

P. mirabilis 620A = settings: Proteus mirabilis, 620A, P. mirabilis 620A; read-out: MIC
Procedure, shortened: as §1

K. pneumoniae 4964 = tested on: K. pneumoniae 4964
Procedure, shortened: as §1

S. schottmuelleri = settings: read-out: MIC
Procedure, shortened: as §1

P. vulgaris 101 = settings: Proteus vulgaris, 101, P. vulgaris 101; read-out: MIC
Procedure, shortened: as §1

S. aureus 1059B = settings: Staphylococcus aureus, read-out: MIC
Procedure, shortened: as §1

E. coli 4 = tested on: E. coli 4
Procedure, shortened: as §1

K. pneumoniae 503-964 = settings: Klebsiella pneumoniae, 503964; K. pneumoniae 503-964; read-out: MIC
Procedure, shortened: as §1

K. pneumoniae 503-994 = settings: Klebsiella pneumoniae, 503994, K. pneumoniae 503-994; read-out: MIC
Procedure, shortened: as §1

S. marcescens S5 = settings: Serratia marcescens, S5, S. marcescens S5; read-out: MIC
Procedure, shortened: as §1

S. pyogenes 503-782 = settings: Streptococcus pyogenes, 503782; S. pyogenes 503-782; read-out: MIC
Procedure, shortened: as §1

S. marcescens SM = settings: Serratia marcescens, read-out: MIC
Procedure, shortened: as §1

E. aerogenes 83 = settings: Klebsiella aerogenes, 83, E. aerogenes 83; read-out: MIC
Procedure, shortened: as §1

E. aerogenes 8 = settings: Klebsiella aerogenes; E. aerogenes 8; read-out: MIC
Procedure, shortened: as §1

E. cloacae 9570A = settings: Enterobacter cloacae, read-out: MIC
Procedure, shortened: as §1

E. coli 48 = settings: Escherichia coli, 48, E. coli 48; read-out: MIC
Procedure, shortened: as §1

S. aureus Giorgio = settings: Staphylococcus aureus
Procedure, shortened: as §1

S. marcescens S147 = settings: Serratia marcescens; S. marcescens S147; read-out: MIC
Procedure, shortened: as §1

P. mirabilis 2 = settings: Proteus mirabilis, 2, P. mirabilis 2; read-out: MIC
Procedure, shortened: as §1

P. aeruginosa 5700 = settings: Pseudomonas aeruginosa, 5700, P. aeruginosa 5700; read-out: MIC
Procedure, shortened: as §1

S. aureus Smith = settings: Staphylococcus aureus, S. aureus Smith; read-out: MIC
Procedure, shortened: as §1

P. aeruginosa Stone 130 = settings: Pseudomonas aeruginosa, STONE130, read-out: MIC
Procedure, shortened: as §1

## CC1(C)S[C@@H]2[C@H](N=CN3CCC(CCn4ccnc4)CC3)C(=O)N2[C@H]1C(=O)O [B, [2S-2alpha,5alpha,6beta)]-6-[[[4-[2-(1H-imidazol-1-yl)ethyl]-1-piperidinyl]methylene]amino]-3,3-dimethyl-7-oxo-4-thia-1-azabicyclo[3.2.0]heptane-2-carboxylic acid hydrate hydrochloride]
E. aerogenes 503-478
  MIC: 2 mg/L
S. marcescens S714
  MIC: 1 mg/L
E. cloacae 6951
  MIC: 16 mg/L
E. cloacae 214
  MIC: 1 mg/L
E. cloacae 9295
  MIC: 0.5 mg/L
C. diversus CDC 1663-72
  MIC: 0.25 mg/L
K. pneumoniae 8357
  MIC: 0.25 mg/L
K. pneumoniae HE7
  MIC: > 128 mg/L
P. vulgaris 100
  MIC: 8 mg/L
S. marcescens S2
  MIC: 0.5 mg/L
E. coli 387-1
  MIC: 8 mg/L
K. pneumoniae 35
  MIC: 1 mg/L
S. faecalis C1
  MIC: > 128 mg/L
E. coli 5152; Escherichia coli, 5152
  MIC: 16 mg/L
S. marcescens S1
  MIC: 0.5 mg/L
P. aeruginosa 8780
  MIC: > 128 mg/L
P. aeruginosa 5712
  MIC: > 128 mg/L
S. marcescens 5805
  MIC: 1 mg/L
P. aeruginosa 503-820
  MIC: > 128 mg/L
E. coli 503-455; Escherichia coli, 503455
  MIC: 1 mg/L
S. marcescens S4
  MIC: 1 mg/L
P. aeruginosa B
  MIC: > 128 mg/L
P. aeruginosa POW 151
  MIC: > 128 mg/L
P. mirabilis 620A
  MIC: > 128 mg/L
K. pneumoniae 4964; Klebsiella pneumoniae, 4964
  MIC: 0.5 mg/L
S. schottmuelleri
  MIC: 0.25 mg/L
P. vulgaris 101
  MIC: 1 mg/L
S. aureus 1059B
  MIC: > 128 mg/L
E. coli 4; Escherichia coli, 4
  MIC: 8 mg/L
K. pneumoniae 503-964
  MIC: 0.25 mg/L
K. pneumoniae 503-994
  MIC: 0.25 mg/L
S. marcescens S5
  MIC: 2 mg/L
S. pyogenes 503-782
  MIC: 8 mg/L
S. marcescens SM
  MIC: 0.25 mg/L
E. aerogenes 83
  MIC: 0.5 mg/L
E. aerogenes 8
  MIC: 0.25 mg/L
E. cloacae 9570A
  MIC: 0.5 mg/L
E. coli 48
  MIC: 0.25 mg/L
S. aureus Giorgio
  MIC: 32 mg/L
S. marcescens S147
  MIC: 0.5 mg/L
P. mirabilis 2
  MIC: 1 mg/L
P. aeruginosa 5700
  MIC: > 128 mg/L

## CC1(C)S[C@@H]2[C@H](N=CN3CCC(Cc4ncc[nH]4)CC3)C(=O)N2[C@H]1C(=O)O [Q, [2S-(2alpha,5alpha,6beta)]-6-[[[4-(1H-imidazol-2-yl-methyl)-1-piperidinyl]methylene]amino]-3,3-dimethyl-7-oxo-4-thia-1-azabicyclo[3.2.0]heptane-2-carboxylic acid hydrochloride]
E. aerogenes 503-478
  MIC: 16 mg/L
S. marcescens S714
  MIC: 0.25 mg/L
E. cloacae 6951
  MIC: 16 mg/L
E. cloacae 214
  MIC: 0.5 mg/L
E. cloacae 9295
  MIC: 4 mg/L
S. aureus Smith
  MIC: 8 mg/L
C. diversus CDC 1663-72
  MIC: 0.062 mg/L
K. pneumoniae 8357
  MIC: 4 mg/L
K. pneumoniae HE7
  MIC: > 128 mg/L
P. vulgaris 100
  MIC: 1 mg/L
S. marcescens S2
  MIC: 0.125 mg/L
E. coli 387-1
  MIC: 0.062 mg/L
K. pneumoniae 35
  MIC: 0.25 mg/L
E. coli 5152; Escherichia coli, 5152, E. coli 5152, read-out: MIC
  MIC: 64 mg/L
S. marcescens S1
  MIC: 0.125 mg/L
S. marcescens 5805
  MIC: 1 mg/L
E. coli 503-455; Escherichia coli, 503455, E. coli 503-455, read-out: MIC
  MIC: 1 mg/L
S. marcescens S4
  MIC: 0.5 mg/L
P. aeruginosa POW 151
  MIC: > 128 mg/L
P. mirabilis 620A
  MIC: > 128 mg/L
K. pneumoniae 4964; Klebsiella pneumoniae, 4964, K. pneumoniae 4964, read-out: MIC
  MIC: 4 mg/L
P. vulgaris 101
  MIC: 8 mg/L
S. aureus 1059B
  MIC: 128 mg/L
P. aeruginosa Stone 130
  MIC: > 128 mg/L
E. coli 4; Escherichia coli, 4, E. coli 4, read-out: MIC
  MIC: 0.062 mg/L
K. pneumoniae 503-964
  MIC: 0.5 mg/L
K. pneumoniae 503-994
  MIC: 8 mg/L
S. marcescens S5
  MIC: 0.5 mg/L
S. marcescens SM
  MIC: 0.125 mg/L
E. aerogenes 83
  MIC: 4 mg/L
E. aerogenes 8
  MIC: 0.125 mg/L
E. cloacae 9570A
  MIC: 0.125 mg/L
E. coli 48
  MIC: 8 mg/L
S. aureus Giorgio; S. aureus Giorgio, read-out: MIC
  MIC: 8 mg/L
S. marcescens S147
  MIC: 0.125 mg/L
P. mirabilis 2
  MIC: 8 mg/L
